Results on 1 molecule are retold here after publication PMC8305768, “Design, Synthesis and Antiparasitic Evaluation of Click Phospholipids” (Molecules, 2021).

Series [1] concerns mitochondria of 786-0 cells. As to the kind of experiment: Mitochondrial toxicity assay (MitoTracker Red CMXRos, 786-0 cells). The series is classed as cell-based. The settings on record: compounds 10 μM, miltefosine 10 μM or 1 μM. Here is the method:
Mitochondrial toxicity assay: This assay made use of the MitoTracker Red CMXRos dye (Thermo Fischer Scientific, Waltham, MA, USA), which stains the mitochondria in live cells and its accumulation is dependent on the presence of a membrane potential. The renal carcinoma 786-0 cell line was used for mitochondrial toxicity screening. Cells were harvested from a 75 cm^2 flask at 80% confluency by washing once with 5 mL of rt PBS and incubating with 1 mL of 0.05% v/v trypsin/0.02% v/v EDTA for 3 min. Cells were suspended in 10 mL of prewarmed cell culture media (RPMI-1 640 supplemented with 10% v/v FCS, 100 U/mL penicillin and 100 μg/mL streptomycin) and counted using a Scepter (Merck Millipore, Darmstadt, Germany). The 786-0 cells were diluted to 75,000 cells/mL and 20 μL of this suspension added to each well of a 384-well plate. Cells were incubated for 36 h at 37 °C and 5% CO2, and compounds were added using a predilution plate. The positive control was valinomycin at a final concentration of 1 μM, with the negative control being DMSO at the same concentration. Ten microliters of compounds and controls were added to cells and incubated for 6 h at 37 °C and 5% CO2 in a humidity controlled atmosphere. After incubation, 10 μL of a 200 nM solution of MitoTracker Red CMXRos in prewarmed cell culture media was added to each well, and the 786-0 cells were incubated for an additional 45 min at 37 °C and 5% CO2. MitoTracker Red CMXRos uptake was measured using an Opera Imaging System. To facilitate automatic image analysis, the layout containing the compound area and the valinomycin and DMSO control areas were created and stored. A sublayout of five evenly dispersed fields per well were used. These settings also included a measurement height of 1 μm, which was stored in an exposure file format. By using the stored settings and files, an automated run was repeatedly created and executed. The images were transferred to a file server and uploaded into Columbus 2.4.0 (PerkinElmer, Waltham, MA. USA) using the built-in helper function and analysed therein.

Another series deals with A549 cells. The series can be described thus: Cytotoxicity assay A549 (CellTiter-Glo). The series is classed as cell-based, human. To be noted: compounds 10 μM; miltefosine 10 μM or 1 μM. From the text:
Early ADMET profiling: The early ADMET profiling of the new derivatives involved a group of assays widely used in drug development as part of the preclinical in vitro toxicity studies. In particular our panel included hERG inhibition, five cytochromes P450 (CYP1A2, CYP2C9, CYP2C19, CYP2D6 and CYP3A4), two cell-lines (A549, epithelial human lung adenocarcinoma, WI38 and foetal lung fibroblasts), Aurora B kinase and mitochondrial toxicity, in addition to the parasite relevant toxicity against THP1 macrophages. The compounds were tested at 10 μΜ, whilst the miltefosine control was tested at 10 μΜ or 1 μM. The toxicity of the new click phospholipids is depicted in Figure 3 in a traffic light format (from red through yellow to green for decreasing ADMET liabilities).
Cytotoxicity assay: A549 cells and WI-38 cells were grown on surface-modified T175 cell culture flasks in Dulbecco’s modified Eagle medium with 10% foetal calf serum (FCS), streptomycin (100 μg/mL) and 100 U/mL penicillin G. At about 80% confluency, cells were washed, trypsinized, resuspended and counted in RPMI-1640 medium before seeding (in triplicate) into white 384-well microtiter plates (20 μL) at 500 cells/well and incubated at 37 °C in the presence of 5% CO2 for 24 h. A total of 20 μL/well of CellTiter-Glo (CTG) reagent (Promega Corp., Madison, WI, USA) was added to each well, and plates were read using an EnVision Multilabel 2103 Reader after a 10-min incubation in the dark. Dose–response assays for compounds made use of 11-point curves. Each test compound (200 nL of 10 mM top concentration in 100% v/v DMSO) was added to cells seeded in polystyrene 384-well cell culture microtiter plates using the Echo 550 Liquid Handler and read after 24 h of incubation at 37 °C in the presence of 5% CO2 using CTG as described above. The compounds/positive control (paclitaxel with final concentration of 10 μM and 1% v/v DMSO) and no compound (final 1% v/v DMSO) were added into the 384-well plates (200 nL/well; 1% v/v DMSO) using the Echo 550 Liquid Handler. The raw luminescence signal of each sample was converted into the percentage of cell growth.

In series [2] the test system is L. infantum (MHOM/MA/67/ITMAP-263) intracellular amastigotes. As to the kind of experiment: Activity against L. infantum MHOM/MA/67/ITMAP-263 intramacrophage amastigotes (luciferase, THP-1). The series is classed as cell-based, Leishmania infantum. On the procedure:
A cloned line of L. infantum (MOM/ MA671TMAP263) promastigotes were maintained in RPMI 1640 medium supplemented with 10% heat-inactivated foetal bovine serum (FBS), 2 mM L-glutamine, 20 mM HEPES and 1% Penn/Strep. Maintenance of promastigotes was done in T-25 flasks at 26 °C by subpassage at […] every 5−6 days. L. infantum axenic amastigotes expressing episomal luciferase were maintained in MAA/20 (axenic amastigote medium) at 37 °C under a 5% CO2 environment with subpassages every 5 days. LUC-positive parasites were selected by addition of geneticin sulphate (G418) to the culture at 60 μg/mL.
The efficacy of compounds against L. infantum intracellular amastigotes was determined according to the literature with slight modifications. Briefly, 1 × 10^6 THP-1 cell/mL were seeded in a 96 well flat bottom plate (100 µL/well) and differentiated into macrophages by addition of 20 ng/mL of phorbol-myristate 13-acetate (PMA, Sigma, Saint Louis, MI, USA) for 18 h, followed by replacement with fresh medium for 24 h. Then these cells were infected with luciferase-expressing L. infantum axenic amastigotes in a macrophage:amastigotes ratio of 1:10 for 4 h at 37 °C, 5% CO2. Non-internalized parasites were washed and compounds were added at different concentrations in a final volume of 100 µL. After 72 h of incubation, the media was substituted by 100 µL of PBS. Then of 25 µL of Glo-lysis buffer from the Steady-Glo Luciferase Assay System (Promega, Madison, WI, USA) was added mixed and incubated for 10 min with agitation at 100 rpm. Finally, 30 µL of the Steady-Glo reagent (Promega, Madison, WI, USA) was then added to the plate and was incubated for 15 min with agitation at 100 rpm and then the content of each well was transferred to white-bottom 96-well plates. Luminescence intensity was read using a Synergy 2 Multi-Mode Reader (Biotek, Winooski, VT, USA). The antileishmanial effect was evaluated by the determination of the IC50 value (concentration required to inhibit growth in 50%) and calculated by the non-linear regression analysis using GraphPad Prism version 8.1.1 for Windows (GraphPad Software, San Diego CA, USA).

Take `CCCCCCCCCCCCCCCCOP(=O)([O-])OCC[N+](C)(C)C` [Miltefosine, hexadecylphosphocholine, reference compound]: the “% toxicity ± SD at 10 μΜ Mitochondria” value in series [1] worked out at 3.99%. In the series on A549 cells, the “% cell growth ± SD at 10 μΜ A549” value was 95.80%. In addition, the “Selectivity Index CC50/IC50” value in series [2] stood at 4.9. Besides, the IC50 in series [2] (Leishmania infantum, THP-1, 72 h, read-out: L. infantum (MHOM/MA/67/ITMAP-263) Intracellular Amastigotes IC50 ± SD) amounted to 3.2 ± 1.4 µM.
